Data as given in patent publication US12139477B2, “Compounds, salts thereof and methods for treatment of diseases” (ACADIA PHARMACEUTICALS INC., priority 2017, dated 2024).

Columns and labels:
Assay type in all cases: cell-based
5HT2A [1] = target: T1, 5HT2A (Homo sapiens, UniProt P28223); assay: Beta-arrestin recruitment assay (Tango technology, antagonist mode); parameters: engineered protease cleavage site followed by tethered transcription factor (C); conditions: read-out: 5HT2A (pIC50) Beta-arrestin (converted)
T1 sequence (P28223 whole entry): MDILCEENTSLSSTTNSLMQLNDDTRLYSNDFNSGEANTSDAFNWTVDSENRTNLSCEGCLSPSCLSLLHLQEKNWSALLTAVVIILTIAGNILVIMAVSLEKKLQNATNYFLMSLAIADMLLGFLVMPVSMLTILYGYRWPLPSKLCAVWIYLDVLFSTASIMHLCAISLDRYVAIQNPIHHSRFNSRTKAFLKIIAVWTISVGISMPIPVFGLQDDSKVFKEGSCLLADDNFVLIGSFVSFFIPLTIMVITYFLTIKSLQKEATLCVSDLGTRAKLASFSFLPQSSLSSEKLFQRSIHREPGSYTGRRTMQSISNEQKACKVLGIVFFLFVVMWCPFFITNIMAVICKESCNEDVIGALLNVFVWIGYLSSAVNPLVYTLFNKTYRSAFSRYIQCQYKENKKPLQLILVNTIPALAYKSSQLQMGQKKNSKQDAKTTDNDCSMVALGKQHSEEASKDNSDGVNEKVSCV
Description: Beta-Arrestin Recruitment Assay:
Detecting GPCR Signaling Using the Tango Technology
GPCR signaling through beta-arrestin was detected by the Tango Technology at Thermofisher. This technology is based upon the interaction of intracellular beta-arrestin proteins and the target receptor. Upon ligand binding to the target receptor, the protease tagged arrestin is stimulated and recruited to the engineered protease site on the C-terminus of the GPCR, which triggers release of the tethered transcription factor. The free transcription factor then enters the nucleus and stimulates the beta-lactamase (bla) activity.
Test compounds are received at 1000× (or greater) of the desired starting concentration in 100% DMSO. The 1000× test compounds are serially diluted (10 point […] increments) in 100% DMSO.
Antagonist Assay Protocol:
An Agonist assay screen (see above) is run to obtain the EC80 concentration of the known activator to add in step 3.
1. 32 μL of cells diluted in Assay Media to appropriate cell density are added to the assay plate. If needed, cells are incubated at 37° C./5% CO2 for 6 or 16-24 hours (depending upon cell line specifics) before compound is added.
2. 40 nL of 1000× compound or known antagonist titration plus 4 μL of Assay Media is added to the cells in the assay plate and incubated for 30 minutes at 37° C./5% CO2 in a humidified incubator.
3. 4 μL of the 10×EC80 concentration of agonist, as determined in an Agonist assay, is added to all wells containing test compound and known inhibitor to bring the final assay volume to 40 μL.
4. 4 μL of Assay Media is added to remaining control wells to bring the volume up to 40 μL.
5. The assay plate is incubated for 5 or 16 hours (depending upon cell line specifics) at 37° C./5% CO2 in a humidified incubator.
6. 8 μL of the Substrate Loading Solution is added to the assay plate.
7. The assay plate is incubated for 2 hours at room temperature, in the dark.
8. The assay plate is read on a fluorescence plate reader (Tecan Safire2) and the data is analyzed.
SelectScreen Cell-Based GPCR Profiling Service uses XLfit from IDBS. The dose response curve is curve fit to model number 205 (sigmoidal dose-response model). Custom logic was built in-house for the data analysis tool to address the different compound characteristics that can be observed with functional assays. Using this logic the relative EC50/IC50 value for each given compound is provided.

hERG channel = target: T2, hERG channel (Homo sapiens, UniProt Q12809); assay: hERG assay, whole cell recordings in CHO cells (AVIVA); conditions: CHO cells stably expressing hERG, pH 7.4
T2 construct: host or cells: CHO cells, stably transfected
T2 sequence (Q12809 whole entry): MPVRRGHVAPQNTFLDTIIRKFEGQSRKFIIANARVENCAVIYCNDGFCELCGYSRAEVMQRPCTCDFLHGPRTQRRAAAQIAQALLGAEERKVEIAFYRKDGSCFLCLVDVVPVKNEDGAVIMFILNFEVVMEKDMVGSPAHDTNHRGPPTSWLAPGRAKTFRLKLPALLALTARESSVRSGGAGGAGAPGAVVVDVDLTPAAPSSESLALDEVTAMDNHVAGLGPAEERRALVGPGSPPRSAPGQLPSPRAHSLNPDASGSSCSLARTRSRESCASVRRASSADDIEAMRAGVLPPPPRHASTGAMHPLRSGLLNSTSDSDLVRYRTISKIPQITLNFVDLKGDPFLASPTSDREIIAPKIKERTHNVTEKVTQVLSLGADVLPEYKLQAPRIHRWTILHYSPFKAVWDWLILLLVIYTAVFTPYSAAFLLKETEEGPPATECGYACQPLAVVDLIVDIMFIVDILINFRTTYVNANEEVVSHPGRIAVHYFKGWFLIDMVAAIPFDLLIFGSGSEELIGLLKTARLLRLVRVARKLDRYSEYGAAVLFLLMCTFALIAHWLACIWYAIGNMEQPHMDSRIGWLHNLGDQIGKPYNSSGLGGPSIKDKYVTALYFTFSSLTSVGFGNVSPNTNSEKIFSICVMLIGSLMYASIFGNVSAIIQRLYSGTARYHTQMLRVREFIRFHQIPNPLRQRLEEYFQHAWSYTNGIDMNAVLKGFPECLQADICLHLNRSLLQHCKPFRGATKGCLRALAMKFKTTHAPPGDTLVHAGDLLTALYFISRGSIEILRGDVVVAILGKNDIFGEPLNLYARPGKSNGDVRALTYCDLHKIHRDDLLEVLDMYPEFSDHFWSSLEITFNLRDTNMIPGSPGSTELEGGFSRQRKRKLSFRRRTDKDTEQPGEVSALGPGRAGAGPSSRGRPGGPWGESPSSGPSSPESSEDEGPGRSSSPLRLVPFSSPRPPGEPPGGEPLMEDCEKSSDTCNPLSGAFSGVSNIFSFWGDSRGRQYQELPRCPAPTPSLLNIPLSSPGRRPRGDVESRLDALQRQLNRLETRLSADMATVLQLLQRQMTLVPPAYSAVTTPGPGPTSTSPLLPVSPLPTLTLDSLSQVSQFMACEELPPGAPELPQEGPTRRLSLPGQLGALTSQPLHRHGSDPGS
Method: The most common mechanism for these adverse events is the inhibition of one or more cardiac potassium channels, in particular hERG. This current is important for cardiac myocyte repolarization and is a common target for drugs that prolong the QT interval. Test articles in this study were therefore characterized to determine their ability to inhibit the hERG channel. Ion channel activity was measured at AVIVA Biosciences Corporation (San Diego, CA), using a stably transfected Chinese Hamster Ovary (CHO) cell line expressing the hERG mRNA.
Cells: AVIVA's CHO cell line, which stably expresses hERG channels, was used for the study. Cells were cultured in DMEM/F12 containing 10% FBS, 1% penicillin/streptomycin and 500 μg/ml G418. Before testing, cells were harvested using Accumax (Innovative Cell Technologies).
Solutions: For electrophysiological recordings, the following solutions were used: External Solution: 2 mM CaCl2); 2 mM MgCl2; 4 mM KCl; 150 mM NaCl; 10 mM Glucose; 10 mM HEPES; 305-315 mOsm; pH 7.4 (adjusted with 5M NaOH); Internal Solution: 140 mM KCl; 10 mM MgCl2; 6 mM EGTA; 5 mM HEPES-Na; 5 mM ATP-Mg; 295-305 mOsm; pH 7.25 (adjusted with 1M KOH).
Electrophysiology: Whole cell recordings were performed using PX 7000A (Axon Instruments) with AVIVA's SealChip™ technology. Cells were voltage clamped at a holding potential of −80 mV. The hERG current was then activated by a depolarizing step to −50 mV for 300 ms. This first step at −50 mV was used as a baseline for measuring peak amplitude of the tail current. Next, a voltage step to +20 mV was applied for 5 s to activate the channels. Finally, a step back to −50 mV for 5 s removed activation and the deactivating tail current was recorded.
Test Article Handling and Dilutions: All test articles were prepared from 10 mM DMSO stock solutions provided by Sponsor. Solutions were mixed by sonication for 20 min, followed by vigorous vortexing. Prior to testing, compounds were diluted to test concentrations in glass vials using External Solution. Dilutions were prepared no longer than 20 min prior to use.
Electrophysiology Procedures: After achieving whole cell configuration, cells were monitored for 90 s to assess stability and then washed with External Solution for 66 s. The voltage protocol previously described was then applied to the cells every 12 s throughout the procedure. Only stable cells with recording parameters above threshold (see Quality Control section) were allowed to enter the drug addition procedure. External solution containing 0.1% DMSO (vehicle) was applied to the cells to establish a baseline. […] Test article solutions were added to cells in 4 separate additions. Cells were kept in test solution until effect of the test article reached steady state, to a maximum of 12 min. Next, 1 μM cisapride (positive control) was added. Finally, washout with External Solution was performed until the recovery current reached steady state.
Data Analysis: Data analysis was performed using DataXpress (Axon Instruments), Clampfit (Axon Instruments) and Origin (OriginLab Corporation) software.

5HT2A [2] = target: T1, 5HT2A; assay: Receptor Selection and Amplification (R-SAT) functional assay; parameters: expressed in transfected cells; host or cells: NIH3T3 cells, pSI mammalian expression vector; conditions: NIH3T3 cells; Ki from IC50 by Cheng and Prussoff; read-out: 5-HT2a (pKi) (R-SAT) (converted)
Description: Receptor Selection and Amplification (R-SAT) Assays. […] The IC50 determined in the RSAT assay was converted into a Ki value using the method of Cheng and Prussoff, Biochem Pharmacol., 1973 Dec. 1; 22(23):3099-108. pKi is the negative of the log(Ki).

Structure (SMILES)	IC50 (5HT2A [1])	Ki (5HT2A [2])	inhibition at 1 µM (hERG channel)
Cc1c[nH]c2ccc(CNC(=O)N(Cc3ccc(F)cc3F)C3CCN(C)CC3)cc12 [Example 21]	200 nM		
CN1CCC(N(Cc2ccc(F)cc2F)C(=O)NCc2ccc3c(c2)CCN3C)CC1 [Example 23]	15.8 nM		13%
Cc1noc2cc(CNC(=O)N(Cc3ccc(F)cc3F)C3CCN(C)CC3)ccc12 [Example 24]	126 nM		10%
Cc1cc2cc(CNC(=O)N(Cc3ccc(F)cc3F)C3CCN(C)CC3)ccc2n1C [Example 25]	100 nM		
CN1CCC(N(Cc2ccc(F)cc2F)C(=O)NCc2ccc3ncccc3c2)CC1 [Example 27]	79.4 nM		
CN1CCC(N(Cc2ccc(F)cc2F)C(=O)NCc2ccc3c(c2)OC(C)(C)C=C3)CC1 [Example 34]	316 nM		
CN1CCC(N(Cc2ccc(F)cc2F)C(=O)NCc2ccc3cnn(C)c3c2)CC1 [Example 35]	200 nM		
Cc1cc2cc(CNC(=O)N(Cc3ccc(F)cc3F)C3CCN(C)CC3)ccc2[nH]1 [Example 36]	25.1 nM		29%
CN1CCC(N(Cc2ccc(F)cc2F)C(=O)NCc2ccc3c(c2)CCS3(=O)=O)CC1 [Example 37]	631 nM		8%
CN1CCC(N(Cc2ccc(F)cc2F)C(=O)NCc2ccc3c(c2)CCC3)CC1 [Example 38]	3.98 nM		
CN1CCC(N(Cc2ccc(F)cc2F)C(=O)NCc2ccc3ncsc3c2)CC1 [Example 39]	15.8 nM		21%
Cc1n[nH]c2ccc(CNC(=O)N(Cc3ccc(F)cc3F)C3CCN(C)CC3)cc12 [Example 42]	251 nM		

Second part, led by results:

IC50 (5HT2A [1])	Ki (5HT2A [2])	Structure (SMILES)	inhibition at 1 µM (hERG channel)
126 nM		CC(C)Oc1ccc(CNC(=O)N(Cc2ccc(C#N)cc2F)C2CCN(C)CC2)cc1 [Example 43]	42%
158 nM		CC(C)Oc1ccc(CNC(=O)N(Cc2ccc([N+](=O)[O-])cc2F)C2CCN(C)CC2)cc1 [Example 44]	70%
3.98 nM		O=C(O)C(F)(F)F.[2H]C([2H])([2H])C(N1CCC(N(Cc2ccc(F)cc2F)C(=O)NCc2ccc(OC(C)C)cc2)CC1)C([2H])([2H])[2H] [Example 75, 1-[(2,4-difluorophenyl)methyl]-1-{1-[(1,1,1,3,3,3-^2H6)propan-2-yl]piperidin-4-yl}-3-{[4-(propan-2-yloxy)phenyl]methyl}urea; Trifluoroacetic Acid]	
	1.26 nM	CN1CCC(N(Cc2ccc(F)cc2F)C(=O)NCc2ccc(OCC(F)F)cc2)CC1 [Example 154, 3-{[4-(2,2-difluoroethoxy)phenyl]methyl}-1-[(2,4-difluorophenyl)methyl]-1-(1-methylpiperidin-4-yl)urea; Trifluoroacetic Acid]	23%
	0.158 nM	CN1CCC(N(Cc2ccc(F)cc2F)C(=O)NCc2ccc3c(c2)C=CC(C)(C)O3)CC1 [Example 155, 1-[(2,4-difluorophenyl)methyl]-3-[(2,2-dimethyl-2H-chromen-6-yl)methyl]-1-(1-methylpiperidin-4-yl)urea; Trifluoroacetic Acid]	47%
	0.631 nM	O=C(NCc1ccc(OC2CC2)cc1)N(Cc1ccc(F)cc1F)C1CCNCC1 [Example 157, 1-[(4-cyclopropoxyphenyl)methyl]-3-[(2,4-difluorophenyl)methyl]-3-(piperidin-4-yl)urea; Trifluoroacetic Acid]	20%
	0.794 nM	CC1(C)Cc2cc(CNC(=O)N(Cc3ccc(F)cc3F)C3CCNCC3)ccc2O1 [Example 158, 1-[(2,4-difluorophenyl)methyl]-3-[(2,2-dimethyl-2,3-dihydro-1-benzofuran-5-yl)methyl]-1-(piperidin-4-yl)urea; Trifluoroacetic Acid]	8%
